Results published in the kinase profiling compilation of Christmann-Franck et al. (2016).

How the values were obtained:
Assay in all cases: KINOMEscan competition binding
Details in all cases: compound 0.5 µM
[1] = tested on: ABL1 (human), P00519 [E255K]
[2] = tested on: ABL1 (human), P00519 [M351T]
ACVRL1 (human) = ACVRL1 (human) (UniProt P37023)
CAMK2G (human) = CAMK2G (human) (UniProt Q13555)
CDK13 (human) = CDK13 (human) (UniProt Q14004)
CDK16 (human) = CDK16 (human) (UniProt Q00536)
CDK19 (human) = CDK19 (human) (UniProt Q9BWU1)
CDK3 (human) = CDK3 (human) (UniProt Q00526)
CHEK2 (human) = CHEK2 (human) (UniProt O96017)
CHUK (human) = CHUK (human) (UniProt O15111)
DCLK2 (human) = DCLK2 (human) (UniProt Q8N568)
DDR1 (human) = DDR1 (human) (UniProt Q08345)
EPHA8 (human) = EPHA8 (human) (UniProt P29322)
EPHB1 (human) = EPHB1 (human) (UniProt P54762)
ERBB3 (human) = ERBB3 (human) (UniProt P21860)
FGFR2 (human) = FGFR2 (human) (UniProt P21802)
[3] = tested on: FLT3 (human), P36888 [D835Y]
[4] = tested on: FLT3 (human), P36888 [ITD]
GAK (human) = GAK (human) (UniProt O14976)
GSK3A (human) = GSK3A (human) (UniProt P49840)
HIPK4 (human) = HIPK4 (human) (UniProt Q8NE63)
[5] = target: JAK3 JH1 catalytic (human) (UniProt P52333)
[6] = tested on: KIT (human), P10721 [A829P]
[7] = tested on: KIT (human), P10721 [L576P]
MAP2K1 (human) = MAP2K1 (human) (UniProt Q02750)
MAP3K13 (human) = MAP3K13 (human) (UniProt O43283)
MAP3K7 (human) = MAP3K7 (human) (UniProt O43318)
MAPK15 (human) = MAPK15 (human) (UniProt Q8TD08)
MERTK (human) = MERTK (human) (UniProt Q12866)
MET (human) = MET (human) (UniProt P08581)
NEK11 (human) = NEK11 (human) (UniProt Q8NG66)
NUAK2 (human) = NUAK2 (human) (UniProt Q9H093)
PDPK1 (human) = PDPK1 (human) (UniProt O15530)
PIK3C2G (human) = PIK3C2G (human) (UniProt O75747)
[8] = tested on: PIK3CA (human), P42336 [E542K]
[9] = tested on: PIK3CA (human), P42336 [M1043I]
PIK3CB (human) = PIK3CB (human) (UniProt P42338)
PIM1 (human) = PIM1 (human) (UniProt P11309)
PLK4 (human) = PLK4 (human) (UniProt O00444)
RPS6KA1 KD1 (human) = RPS6KA1 KD1 (human) (UniProt Q15418)
RPS6KA5 KD1 (human) = RPS6KA5 KD1 (human) (UniProt O75582)
Sequence of RPS6KA5 KD1 (human) (O75582 whole entry, looked up): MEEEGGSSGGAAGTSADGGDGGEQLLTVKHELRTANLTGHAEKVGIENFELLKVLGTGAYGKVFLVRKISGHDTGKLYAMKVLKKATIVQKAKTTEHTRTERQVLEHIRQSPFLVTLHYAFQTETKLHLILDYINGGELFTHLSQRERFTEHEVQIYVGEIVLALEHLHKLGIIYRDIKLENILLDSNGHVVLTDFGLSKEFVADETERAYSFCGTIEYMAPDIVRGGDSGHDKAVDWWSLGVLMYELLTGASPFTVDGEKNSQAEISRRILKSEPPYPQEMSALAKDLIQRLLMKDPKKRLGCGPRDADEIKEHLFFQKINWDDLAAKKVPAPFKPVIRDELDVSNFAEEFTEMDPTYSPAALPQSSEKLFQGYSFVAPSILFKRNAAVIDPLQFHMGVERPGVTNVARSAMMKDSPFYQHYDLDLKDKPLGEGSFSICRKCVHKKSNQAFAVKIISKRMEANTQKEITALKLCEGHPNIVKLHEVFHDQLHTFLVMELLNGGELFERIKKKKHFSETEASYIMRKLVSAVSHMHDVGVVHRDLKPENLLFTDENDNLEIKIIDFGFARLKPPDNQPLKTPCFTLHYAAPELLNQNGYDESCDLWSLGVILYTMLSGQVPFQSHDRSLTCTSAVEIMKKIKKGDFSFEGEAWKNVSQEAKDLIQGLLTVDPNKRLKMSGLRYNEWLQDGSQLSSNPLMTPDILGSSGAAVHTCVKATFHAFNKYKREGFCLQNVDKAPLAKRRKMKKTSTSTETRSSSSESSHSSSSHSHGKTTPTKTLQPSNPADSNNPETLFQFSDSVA

Sequence of PIK3CA (human), P42336 [E542K] (P42336 whole entry E542K, looked up): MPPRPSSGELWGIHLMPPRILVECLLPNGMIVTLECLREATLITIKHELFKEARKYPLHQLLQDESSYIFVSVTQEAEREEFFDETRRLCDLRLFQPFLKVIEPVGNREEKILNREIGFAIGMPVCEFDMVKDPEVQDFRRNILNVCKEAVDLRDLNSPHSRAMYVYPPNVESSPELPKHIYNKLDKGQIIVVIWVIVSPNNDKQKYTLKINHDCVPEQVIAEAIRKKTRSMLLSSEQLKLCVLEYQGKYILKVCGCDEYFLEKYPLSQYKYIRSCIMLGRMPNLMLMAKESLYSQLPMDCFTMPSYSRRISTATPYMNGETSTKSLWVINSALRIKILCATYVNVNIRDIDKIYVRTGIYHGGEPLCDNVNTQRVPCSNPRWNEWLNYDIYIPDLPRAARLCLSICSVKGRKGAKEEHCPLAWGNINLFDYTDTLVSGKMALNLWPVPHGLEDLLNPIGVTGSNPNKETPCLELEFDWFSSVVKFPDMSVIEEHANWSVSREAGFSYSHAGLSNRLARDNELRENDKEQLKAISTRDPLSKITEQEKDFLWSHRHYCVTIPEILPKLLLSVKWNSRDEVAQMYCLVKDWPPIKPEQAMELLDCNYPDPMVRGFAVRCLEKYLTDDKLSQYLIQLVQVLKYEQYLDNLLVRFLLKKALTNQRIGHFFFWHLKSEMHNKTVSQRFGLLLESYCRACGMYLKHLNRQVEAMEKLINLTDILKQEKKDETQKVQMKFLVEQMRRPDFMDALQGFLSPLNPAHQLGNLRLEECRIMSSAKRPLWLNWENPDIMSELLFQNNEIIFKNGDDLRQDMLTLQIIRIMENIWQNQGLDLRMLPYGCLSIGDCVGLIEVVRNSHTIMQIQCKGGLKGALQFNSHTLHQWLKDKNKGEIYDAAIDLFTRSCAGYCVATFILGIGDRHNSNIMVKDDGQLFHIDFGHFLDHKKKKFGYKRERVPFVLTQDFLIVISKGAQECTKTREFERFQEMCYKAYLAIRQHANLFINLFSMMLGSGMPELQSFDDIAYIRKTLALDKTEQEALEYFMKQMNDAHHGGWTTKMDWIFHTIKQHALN
Sequence of PIM1 (human) (P11309 whole entry, looked up): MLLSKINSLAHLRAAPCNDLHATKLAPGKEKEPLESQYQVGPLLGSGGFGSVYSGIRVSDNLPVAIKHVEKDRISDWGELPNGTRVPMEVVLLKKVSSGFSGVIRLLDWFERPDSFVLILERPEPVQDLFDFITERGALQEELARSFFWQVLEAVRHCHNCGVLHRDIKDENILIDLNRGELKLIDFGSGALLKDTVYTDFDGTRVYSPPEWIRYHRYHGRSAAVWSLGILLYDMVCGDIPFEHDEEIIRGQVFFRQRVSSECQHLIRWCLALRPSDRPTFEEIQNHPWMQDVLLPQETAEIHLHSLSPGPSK
Sequence of CDK3 (human) (Q00526 whole entry, looked up): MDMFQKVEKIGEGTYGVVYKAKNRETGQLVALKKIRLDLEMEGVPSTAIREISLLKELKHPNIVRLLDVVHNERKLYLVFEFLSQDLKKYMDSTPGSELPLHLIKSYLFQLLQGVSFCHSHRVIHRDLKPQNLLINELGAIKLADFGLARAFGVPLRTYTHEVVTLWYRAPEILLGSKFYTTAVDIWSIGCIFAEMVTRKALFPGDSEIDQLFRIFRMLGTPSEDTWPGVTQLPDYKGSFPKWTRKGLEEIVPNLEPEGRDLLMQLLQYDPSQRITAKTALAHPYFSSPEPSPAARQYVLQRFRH
Sequence of ACVRL1 (human) (P37023 whole entry, looked up): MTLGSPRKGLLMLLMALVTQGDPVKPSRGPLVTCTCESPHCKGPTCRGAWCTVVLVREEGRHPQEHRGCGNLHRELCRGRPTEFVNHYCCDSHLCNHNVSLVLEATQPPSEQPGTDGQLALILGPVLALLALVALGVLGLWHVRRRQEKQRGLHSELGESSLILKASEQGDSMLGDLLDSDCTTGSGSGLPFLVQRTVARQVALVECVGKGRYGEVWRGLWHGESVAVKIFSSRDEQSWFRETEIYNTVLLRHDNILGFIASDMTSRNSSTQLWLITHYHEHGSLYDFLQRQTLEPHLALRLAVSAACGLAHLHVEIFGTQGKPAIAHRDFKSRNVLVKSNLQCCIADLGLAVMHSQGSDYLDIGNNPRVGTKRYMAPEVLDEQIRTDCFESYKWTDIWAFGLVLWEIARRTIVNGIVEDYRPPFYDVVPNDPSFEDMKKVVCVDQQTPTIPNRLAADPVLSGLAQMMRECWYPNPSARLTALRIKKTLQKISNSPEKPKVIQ
Sequence of FGFR2 (human) (P21802 whole entry, looked up): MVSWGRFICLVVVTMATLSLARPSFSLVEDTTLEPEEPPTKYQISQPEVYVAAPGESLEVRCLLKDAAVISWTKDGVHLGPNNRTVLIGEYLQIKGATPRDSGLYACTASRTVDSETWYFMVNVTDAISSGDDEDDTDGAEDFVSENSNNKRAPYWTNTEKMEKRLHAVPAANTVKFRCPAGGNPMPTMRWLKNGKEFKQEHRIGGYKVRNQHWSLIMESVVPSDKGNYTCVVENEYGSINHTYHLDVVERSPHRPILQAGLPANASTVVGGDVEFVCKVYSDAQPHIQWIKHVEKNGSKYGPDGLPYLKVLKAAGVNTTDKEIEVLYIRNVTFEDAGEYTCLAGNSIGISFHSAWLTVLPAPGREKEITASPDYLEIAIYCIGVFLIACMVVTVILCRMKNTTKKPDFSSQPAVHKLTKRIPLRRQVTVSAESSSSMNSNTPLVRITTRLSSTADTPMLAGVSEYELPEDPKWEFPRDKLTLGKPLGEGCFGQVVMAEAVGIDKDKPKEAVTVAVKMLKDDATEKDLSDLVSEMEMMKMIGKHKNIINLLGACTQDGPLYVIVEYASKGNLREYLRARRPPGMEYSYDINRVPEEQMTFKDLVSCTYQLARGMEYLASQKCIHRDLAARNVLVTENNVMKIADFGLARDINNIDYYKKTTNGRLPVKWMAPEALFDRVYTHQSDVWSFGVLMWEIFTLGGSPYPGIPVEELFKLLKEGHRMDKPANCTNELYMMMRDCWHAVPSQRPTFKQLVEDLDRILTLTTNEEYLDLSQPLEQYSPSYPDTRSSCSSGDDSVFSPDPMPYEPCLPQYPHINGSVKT
Sequence of NUAK2 (human) (Q9H093 whole entry, looked up): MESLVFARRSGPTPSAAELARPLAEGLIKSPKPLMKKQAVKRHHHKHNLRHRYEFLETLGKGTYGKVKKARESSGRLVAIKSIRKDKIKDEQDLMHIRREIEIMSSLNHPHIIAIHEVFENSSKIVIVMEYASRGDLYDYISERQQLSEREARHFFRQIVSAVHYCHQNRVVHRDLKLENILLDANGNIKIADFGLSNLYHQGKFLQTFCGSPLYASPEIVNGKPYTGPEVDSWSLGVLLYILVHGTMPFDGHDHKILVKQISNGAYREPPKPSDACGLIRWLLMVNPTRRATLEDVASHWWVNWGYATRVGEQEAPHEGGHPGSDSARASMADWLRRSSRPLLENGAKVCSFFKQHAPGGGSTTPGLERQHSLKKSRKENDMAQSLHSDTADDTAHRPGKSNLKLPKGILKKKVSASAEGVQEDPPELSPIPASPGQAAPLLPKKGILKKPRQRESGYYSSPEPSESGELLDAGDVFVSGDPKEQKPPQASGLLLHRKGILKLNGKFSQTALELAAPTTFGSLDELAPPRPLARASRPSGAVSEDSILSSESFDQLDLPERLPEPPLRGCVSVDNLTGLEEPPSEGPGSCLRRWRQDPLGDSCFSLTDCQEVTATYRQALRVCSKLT
Sequence of MAP3K7 (human) (O43318 whole entry, looked up): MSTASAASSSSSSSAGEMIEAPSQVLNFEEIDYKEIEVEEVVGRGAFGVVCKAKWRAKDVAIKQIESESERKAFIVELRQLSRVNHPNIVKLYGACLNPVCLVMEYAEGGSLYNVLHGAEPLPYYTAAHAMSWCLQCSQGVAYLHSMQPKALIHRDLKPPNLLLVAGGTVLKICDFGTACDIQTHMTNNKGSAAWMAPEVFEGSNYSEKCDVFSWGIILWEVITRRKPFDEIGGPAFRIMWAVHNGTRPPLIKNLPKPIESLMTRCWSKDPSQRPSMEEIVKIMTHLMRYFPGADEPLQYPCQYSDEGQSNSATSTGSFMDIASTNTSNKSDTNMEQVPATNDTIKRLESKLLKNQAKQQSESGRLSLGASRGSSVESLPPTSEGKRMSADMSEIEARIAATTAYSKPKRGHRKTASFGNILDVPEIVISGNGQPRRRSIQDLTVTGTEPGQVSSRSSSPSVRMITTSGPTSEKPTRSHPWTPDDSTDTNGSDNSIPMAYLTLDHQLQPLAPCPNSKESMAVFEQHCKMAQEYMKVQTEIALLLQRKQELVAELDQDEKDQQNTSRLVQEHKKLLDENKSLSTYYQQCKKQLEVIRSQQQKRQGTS

In the case of `Cn1c2ccccc2c2c3c(c4c5ccccc5n(CCC#N)c4c21)CNC3=O`, the kinase still bound, per cent of control [1] was 75%, the kinase still bound, per cent of control [2] was 88% and the kinase still bound, per cent of control (ACVRL1 (human)) was 100%. It also gave a kinase still bound, per cent of control (CAMK2G (human)) of 41%, a kinase still bound, per cent of control (CDK13 (human)) of 100% and a kinase still bound, per cent of control (CDK16 (human)) of 93%. The kinase still bound, per cent of control (CDK19 (human)) was 91%, the kinase still bound, per cent of control (CDK3 (human)) was 75% and the kinase still bound, per cent of control (CHEK2 (human)) was 31%. It also gave a kinase still bound, per cent of control (CHUK (human)) of 88%, a kinase still bound, per cent of control (DCLK2 (human)) of 100% and a kinase still bound, per cent of control (DDR1 (human)) of 100%. The kinase still bound, per cent of control (EPHA8 (human)) was 90%, the kinase still bound, per cent of control (EPHB1 (human)) was 97% and the kinase still bound, per cent of control (ERBB3 (human)) was 94%. For the same compound, the kinase still bound, per cent of control (FGFR2 (human)) was 95%, the kinase still bound, per cent of control [3] was 0% and the kinase still bound, per cent of control [4] was 0.2%. For the same compound, the kinase still bound, per cent of control (GAK (human)) was 2%, the kinase still bound, per cent of control (GSK3A (human)) was 100% and the kinase still bound, per cent of control (HIPK4 (human)) was 8%. The kinase still bound, per cent of control [5] was 0%, the kinase still bound, per cent of control [6] was 54% and the kinase still bound, per cent of control [7] was 46%. The kinase still bound, per cent of control (MAP2K1 (human)) was 71%, the kinase still bound, per cent of control (MAP3K13 (human)) was 33% and the kinase still bound, per cent of control (MAP3K7 (human)) was 8%. For the same compound, the kinase still bound, per cent of control (MAPK15 (human)) was 0.45%, the kinase still bound, per cent of control (MERTK (human)) was 89% and the kinase still bound, per cent of control (MET (human)) was 88%. The kinase still bound, per cent of control (NEK11 (human)) was 100%, the kinase still bound, per cent of control (NUAK2 (human)) was 4.4% and the kinase still bound, per cent of control (PDPK1 (human)) was 41%. It also gave a kinase still bound, per cent of control (PIK3C2G (human)) of 70%, a kinase still bound, per cent of control [8] of 100% and a kinase still bound, per cent of control [9] of 93%. The kinase still bound, per cent of control (PIK3CB (human)) was 88%, the kinase still bound, per cent of control (PIM1 (human)) was 32% and the kinase still bound, per cent of control (PLK4 (human)) was 6.5%. The kinase still bound, per cent of control (RPS6KA1 KD1 (human)) was 36% and the kinase still bound, per cent of control (RPS6KA5 KD1 (human)) was 52%.
